Drawing on PubChem BioAssay AID328 (DTP/NCI, 2004), this text covers T/C for 18 compounds.

This test has as its system BDF1 mice, P388 leukemia ip, median survival T/C. Put plainly: NCI In Vivo Anticancer Drug Screen. Data for tumor model P388 Leukemia (intraperitoneal) in B6D2F1 (BDF1) mice. Particulars: endpoint: median survival time, higher = longer survival. A digest of the protocol: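 Each value expresses how treatment altered survival: treated-mouse outcome over vehicle-mouse outcome, both groups bearing the transplanted tumour.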

[1] abbreviates: dose: 25.0 mg/kg/injection, schedule: Q01DX009 (ip), vehicle: saline with Tween-80.
Where [2] appears, read: dose: 50.0 mg/kg/injection, schedule: Q01DX009 (ip), vehicle: saline with Tween-80.
The mark [3] stands for this setting: dose: 100.0 mg/kg/injection, schedule: Q01DX009 (ip), vehicle: saline with Tween-80.
The mark [4] stands for this setting: dose: 12.5 mg/kg/injection, schedule: Q01DX009 (ip), vehicle: saline with Tween-80.
[5] abbreviates: dose: 100.0 mg/kg/injection, schedule: Q04DX003 (ip), vehicle: saline with Tween-80.
[6] abbreviates: dose: 200.0 mg/kg/injection, schedule: Q01DX009 (ip), vehicle: saline with Tween-80.
[7] abbreviates: dose: 200.0 mg/kg/injection, schedule: Q04DX003 (ip), vehicle: saline with Tween-80.
The mark [8] stands for this setting: dose: 400.0 mg/kg/injection, schedule: Q01DX009 (ip), vehicle: saline with Tween-80.
Setting [9] is: dose: 400.0 mg/kg/injection, schedule: Q04DX003 (ip), vehicle: saline with Tween-80.
The mark [10] stands for this setting: dose: 100.0 mg/kg/injection, schedule: Q01DX009 (ip), vehicle: saline.
[11] abbreviates: dose: 100.0 mg/kg/injection, schedule: Q04DX003 (ip), vehicle: saline.
The mark [12] stands for this setting: dose: 200.0 mg/kg/injection, schedule: Q01DX009 (ip), vehicle: saline.
[13] abbreviates: dose: 200.0 mg/kg/injection, schedule: Q04DX003 (ip), vehicle: saline.
Where [14] appears, read: dose: 12.5 mg/kg/injection, schedule: Q04DX003 (ip), vehicle: saline with Tween-80.
The mark [15] stands for this setting: dose: 25.0 mg/kg/injection, schedule: Q04DX003 (ip), vehicle: saline with Tween-80.
[16] abbreviates: dose: 50.0 mg/kg/injection, schedule: Q04DX003 (ip), vehicle: saline with Tween-80.

Where “and” joins values, the source holds several entries; their conditions need not be identical. Equal entries are not always repeated. Toxic doses and inconclusive results are not listed.

For `Cc1c(N)nc(=S)[nH]c1C(=O)O`, the T/C was 113 % of control (dose: 50.0 mg/kg/injection, schedule: Q04DX003 (ip), vehicle: Klucel (hydroxypropylcellulose) (HPC)); 109 % of control (dose: 100.0 mg/kg/injection, schedule: Q01DX001 (ip), vehicle: Klucel (hydroxypropylcellulose) (HPC)); 100 % of control (dose: 100.0 mg/kg/injection, schedule: Q04DX003 (ip), vehicle: Klucel (hydroxypropylcellulose) (HPC)); 109 % of control (dose: 200.0 mg/kg/injection, schedule: Q01DX001 (ip), vehicle: Klucel (hydroxypropylcellulose) (HPC)); 100 % of control (dose: 200.0 mg/kg/injection, schedule: Q04DX003 (ip), vehicle: Klucel (hydroxypropylcellulose) (HPC)); 104 % of control (dose: 400.0 mg/kg/injection, schedule: Q01DX001 (ip), vehicle: Klucel (hydroxypropylcellulose) (HPC)).
For `C=CCCCCCCCCC(=O)NCCCN1CCOCC1`, the T/C by setting is: under setting [1], 100 % of control; under setting [2], 109 % of control; under setting [3], 100 % of control.
Take `CC[n+]1c(-c2ccccc2)c2cc(N)ccc2c2ccc(N)cc21`: the T/C (dose: 1.56 mg/kg/injection, schedule: Q01DX009 (ip), vehicle: saline) was 151 % of control; the T/C (dose: 3.13 mg/kg/injection, schedule: Q01DX009 (ip), vehicle: saline) was 178 % of control; the T/C (dose: 5.0 mg/kg/injection, schedule: Q01DX010 (ip), vehicle: saline) was 155 % of control; the T/C (dose: 5.3 mg/kg/injection, schedule: Q01DX009 (ip), vehicle: saline) was 208 % of control; the T/C (dose: 6.25 mg/kg/injection, schedule: Q01DX009 (ip), vehicle: saline) is 163 % of control; the T/C (dose: 6.25 mg/kg/injection, schedule: Q01DX009 (ip), vehicle: water) was 163 % of control. For the same compound, the T/C reads like this: (dose: 8.0 mg/kg/injection, schedule: Q01DX009 (ip), vehicle: saline) 198 % of control and 222 % of control; (dose: 12.0 mg/kg/injection, schedule: Q01DX009 (ip), vehicle: saline) 227 % of control and 196 % of control; under setting [4], 113 % of control; (dose: 12.5 mg/kg/injection, schedule: Q01DX009 (ip), vehicle: water) 113 % of control; (dose: 20.0 mg/kg/injection, schedule: Q01DX010 (ip), vehicle: saline) 114 % of control and 120 % of control; (dose: 27.0 mg/kg/injection, schedule: Q01DX009 (ip), vehicle: saline) 97 % of control.
Consider `OCCNc1ccc(I)cc1`, for which the T/C (dose: 100.0 mg/kg/injection, schedule: Q04DX003 (ip), vehicle: other) is 113 % of control; the T/C (dose: 200.0 mg/kg/injection, schedule: Q04DX003 (ip), vehicle: other) was 122 % of control; the T/C (dose: 400.0 mg/kg/injection, schedule: Q04DX003 (ip), vehicle: other) is 104 % of control.
On to `COc1cc(/C=C/C(=O)O)ccc1OC(C)=O`, for which the T/C was 100 % of control (dose: 100.0 mg/kg/injection, schedule: Q01DX001 (ip), vehicle: saline); 100 % of control (dose: 200.0 mg/kg/injection, schedule: Q01DX001 (ip), vehicle: saline); 100 % of control (dose: 400.0 mg/kg/injection, schedule: Q01DX001 (ip), vehicle: saline).
For the compound `CC(=O)O[C@H]1CC[C@H]2[C@@H]3[C@H](C)CC4=CC(=O)CCC4[C@H]3CC[C@]12C` (stereo not given in full), the T/C under setting [3] is 95 % of control; the T/C under setting [5] was 100 % of control; the T/C under setting [6] is 90 % of control; the T/C under setting [7] is 95 % of control; the T/C under setting [8] was 100 % of control; the T/C under setting [9] is 100 % of control.
Take `CC1CC(C)(C)N=C(CC(C)(O)c2ccccn2)O1` (stereo not given): the T/C was 100 % of control (dose: 100.0 mg/kg/injection, schedule: Q01DX001 (ip), vehicle: saline sonified); 90 % of control (dose: 200.0 mg/kg/injection, schedule: Q01DX001 (ip), vehicle: saline sonified); 100 % of control (dose: 400.0 mg/kg/injection, schedule: Q01DX001 (ip), vehicle: saline sonified).
For `COc1ccc(CCCC(=O)O)cc1OC`, the T/C under setting [2] was 108 % of control, the T/C under setting [3] is 105 % of control and the T/C under setting [6] is 103 % of control.
As for `CC12CCC(C(N)C1=O)C2(C)C` (stereo not given), the T/C (dose: 50.0 mg/kg/injection, schedule: Q01DX009 (ip), vehicle: saline) is 107 % of control; the T/C under setting [10] is 114 % of control; the T/C under setting [11] was 101 % of control; the T/C under setting [12] was 86 % of control; the T/C under setting [13] is 104 % of control.
With `O=C(/C=C/c1ccc(Cl)c(Cl)c1)c1ccc(Cl)cc1`, the T/C was 100 % of control under setting [14], 100 % of control under setting [15] and 90 % of control under setting [16].
As for `CC1(C#N)CCC(CCc2ccccc2)C(=O)C1` (stereo not given), the T/C by setting is: (dose: 75.0 mg/kg/injection, schedule: Q04DX003 (ip), vehicle: saline) 95 % of control; (dose: 150.0 mg/kg/injection, schedule: Q04DX003 (ip), vehicle: saline) 87 % of control; (dose: 300.0 mg/kg/injection, schedule: Q04DX003 (ip), vehicle: saline) 104 % of control.
Consider `Cc1ccc(-c2nn3c(-c4ccccc4)nnc3o2)cc1`, for which the T/C by setting is: under setting [5], 110 % of control; under setting [7], 115 % of control; under setting [9], 105 % of control.
With `Nc1ncc([N+](=O)[O-])cn1`, the T/C (dose: 100.0 mg/kg/injection, schedule: Q01DX009 (ip), vehicle: Klucel (hydroxypropylcellulose) (HPC)) was 95 % of control and the T/C (dose: 200.0 mg/kg/injection, schedule: Q01DX009 (ip), vehicle: Klucel (hydroxypropylcellulose) (HPC)) was 90 % of control.
As to `CCOC(=O)CSC(=S)SCC(=O)OCC`, the T/C runs as follows: under setting [10], 100 % of control; under setting [11], 90 % of control; under setting [12], 105 % of control; under setting [13], 100 % of control; (dose: 400.0 mg/kg/injection, schedule: Q01DX009 (ip), vehicle: saline) 100 % of control; (dose: 400.0 mg/kg/injection, schedule: Q04DX003 (ip), vehicle: saline) 100 % of control.
Regarding `O=Cc1ccc(C=O)c(Cl)c1`, the T/C was 104 % of control under setting [1]; 90 % of control under setting [2]; 105 % of control (dose: 88.0 mg/kg/injection, schedule: Q04DX003 (ip), vehicle: saline sonified); 118 % of control under setting [3]; 100 % of control (dose: 132.0 mg/kg/injection, schedule: Q04DX003 (ip), vehicle: saline sonified); 100 % of control (dose: 200.0 mg/kg/injection, schedule: Q04DX003 (ip), vehicle: saline sonified). Further, where the note is “dose: 300.0 mg/kg/injection, schedule: Q04DX003 (ip), vehicle: saline sonified”, the T/C is 120 % of control.
For the compound `O=C(Nc1ccc(C2=NCCN2)cc1)Nc1cccc(NC(=O)Nc2cccc(C3=NCCN3)c2)c1`, the T/C by setting is: under setting [4], 150 % of control; (dose: 16.5 mg/kg/injection, schedule: Q04DX003 (ip), vehicle: saline with Tween-80) 266 % of control and 170 % of control; under setting [1], 105 % of control; under setting [15], 250 % of control and 190 % of control and 200 % of control; (dose: 37.5 mg/kg/injection, schedule: Q04DX003 (ip), vehicle: saline with Tween-80) 283 % of control and 185 % of control; under setting [2], 90 % of control. In addition, under setting [16], the T/C was 177 % of control.
Consider `O=C(CNC(=O)Nc1ccc(C2=NCCN2)cc1)Nc1ccc(C2=NCCN2)cc1`, for which the T/C is, setting by setting: under setting [4], 104 % of control; under setting [14], 100 % of control; (dose: 22.0 mg/kg/injection, schedule: Q01DX009 (ip), vehicle: saline with Tween-80) 100 % of control; under setting [1], 120 % of control; under setting [15], 118 % of control; (dose: 33.0 mg/kg/injection, schedule: Q01DX009 (ip), vehicle: saline with Tween-80) 114 % of control. In addition, the T/C under setting [2] was 166 % of control; the T/C under setting [16] is 109 % of control; the T/C (dose: 75.0 mg/kg/injection, schedule: Q01DX009 (ip), vehicle: saline with Tween-80) is 153 % of control.
As for `O=C(c1ccco1)C1Cc2ccccc2C1=O` (stereo not given), the T/C was 116 % of control under setting [3]; 91 % of control under setting [5]; 104 % of control under setting [6]; 104 % of control under setting [7]; 100 % of control under setting [8]; 108 % of control under setting [9].
